Experimental data published in ChEMBL document CHEMBL5126511, “The evolution paths of some reprehensive scaffolds of RORγt modulators, a perspective from medicinal chemistry” (Eur J Med Chem, 2022).

How the values were obtained:
[1] = Metabolic stability in rat liver microsomes assessed as intrinsic clearance; format: ADME, Microsome; conditions: read-out: CLH
[2] = Metabolic stability in human liver microsomes assessed as clearance; format: ADME, Microsome; conditions: read-out: CLH

Structure (SMILES) | microsomal CLint [1] [µL/min/mg] | microsomal CLint [2] [µL/min/mg]
Cc1ncc(C(=O)Nc2cn3ccnc3c(CN3CCN(c4noc(C(C)(C)C)n4)[C@@H](C)C3)c2C)cn1 | < 25 | 
Cc1ncc(C(=O)Nc2cn3ccnc3c(CN3CCN(C(=O)C4CCCC4)[C@@H](C)C3)c2C)cn1 |  | 30
Cc1ncc(C(=O)Nc2cc(Cl)cc(CN3CCN(C(=O)C4CCCC4)[C@@H](C)C3)c2C)cn1 | 33 | 97
